Measurements: paper PMC11464467 (Journal of Advanced Research, 2023)

Columns and labels:
[1] = tested on: MPTP-induced mice PD model; experiment: Footprint test in MPTP-induced mice PD model; assay type: in vivo; settings: selegiline 10 mg/kg orally twice daily 14 days; not statistically significant
striatal DA = experiment: HPLC-ECD striatal DA in MPTP mice; assay type: in vivo; settings: MPTP-treated mice, selegiline 10 mg/kg

In the case of `C#CCN(C)[C@H](C)Cc1ccccc1` [selegiline], the “Locomotion impairments in footprint test (time to cross corridor, stride length)” value [1] was “attenuated these locomotion impairments” and the “Increase in dopamine levels” value (striatal DA) was 15.35%.
